Read-outs that look alike come from different tables or passages of the source.
How the values were obtained:
SH-SY5Y cells = assay: cells; details: for EC10: Homo sapiens, SH-SY5Y; for Specificity ratio (SRbaseline) SRNOI: against baseline cytotoxicity; for Relative effect potency REPNOI: relative to BPA; for EC10, linear / logEC10: NOI bioassay, dosing range all; for EC10, linear: linear model; for logEC10: log-logistic model;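 for Relative effect potency REPNOI: EC10 of BPA divided by EC10 of the test compound so values above 1 mean more potent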;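 for Specificity ratio (SRbaseline) SRNOI: ratio of predicted baseline cytotoxicity IC10 to the neurite outgrowth inhibition EC10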
Text: All bioassay media components and the ERα-UAS-bla GripTite and PPARγ-UAS-bla cells were obtained from Thermo Fisher Scientific (Waltham, MA, USA). AREc32 reporter gene cells based on MCF7 were provided by C. Roland Wolf (Cancer Research UK); AhR CALUX cells (H4L7.5c2 derived from H4IIe) were provided by Michael Denison (UC Davis, USA); and SH-SY5Y cells were purchased from Sigma-Aldrich.
(§1) Cell culture conditions and bioassay protocols including response detection are provided in Text S2.1–2.4 and Table S3. − Cell viability was determined from cell confluency using an IncuCyte S3 Live-Cell Analysis System (Sartorius AG, Essen, Germany) before and after exposure, except for SH-SY5Y cells (live–dead staining with Nuclear Green LcS1 and propidium iodide, Abcam, UK). For metabolic activation experiments, cell viability was assessed using the ToxBLAzer DualScreen Kit (Thermo Fisher Scientific) to capture the remaining toxicity in ERα-UAS-bla GripTite after treatment with the aCYP catalyst (details in Text S2.4).
For ARE, the concentration that triggered an induction ratio of 1.5 (ECIR1.5) was used as the benchmark value, as detailed in Text S2.5. IC10 values also served as a threshold for data analysis in all assays; only concentrations below IC10 were considered when deriving EC10 or ECIR1.5. […]
S2: Cell culture and bioassays
S2.1: Cell Culturing Conditions
All suppliers and sources are given in detail in SI-Excel S3. The bioassay media for the different assays were prepared as follows: Assay medium for ER alpha-UAS-bla GripTite (ERα) and PPAR gamma-UAS-bla 293H (PPARγ) was prepared with 98% Opti-MEM, supplemented with 2% charcoal-stripped FBS, and 100 U/mL penicillin-streptomycin. MitoOxTox and AhR assay medium was comprised of 90% DMEM with GlutaMAX, supplemented with 10% FBS, and 100 U/mL penicillin-streptomycin. Neurotoxicity assay medium consisted of the neurobasal […]
(1 picture or pasted object on this page, not shown here) […]
medium, supplemented with 2% B-27 Supplement and 2 mM GlutaMAX Supplement. SH - SY5Y cells were differentiated with 10 µM all-trans retinoic acid prior to the assay.
S2.2: Cell Seeding and Incubation. For all bioassays, cell suspensions in the respective assay medium were dispensed into each well of 384-well plates using a MultiFlo Dispenser (Biotek, (now Agilent), Winooski, VT, U.S.). After seeding, the plates were incubated at 37° C and 5% CO₂ for […]. The final cell densities and plate types were as follows: Black poly-D-lysine coated 384-well plates (Product No. 354663, Corning Inc., NYC, U.S.) were used for PPARγ:
6500 cells/well, ERα: 5000 cells/well. White 384-well plates with a clear bottom (Product No.
781098, Greiner, Kremsmünster, Austria) were utilized for the MitoOxTox assay: 2650

physchem = details: for Double negative form (pH = 7.40) / Negative form (pH = 7.40) / Neutral form (pH = 7.40) / αneutral % (fraction of neutral species): from experimental pKa; for pKa: pKa (Acid); for αneutral % (fraction of neutral species): pH 7.4
Description: Physicochemical properties provide input parameters for the baseline toxicity model. Acidity constants (pK a) and octanol–water partition constants of the neutral species (K ow) were measured with a Sirius T instrument from Pion Inc. (Sussex, UK) (Text S1.2 and Table S1). A detailed description of the pK a and K ow measurements can be found in literature. , […]
S1.2: pKa and log Kow measurements […]
titrator (Pion Inc., Sussex, U.K.). A detailed description of the experimental procedure is available in the literature.1 In brief, each sample was prepared by mixing 5 µL of a 10 mM dimethyl sulfoxide (DMSO) stock solution with 25 µL of a phosphate buffer solution (14.4 mM […]
A reference vial containing 5 µL of DMSO
(Roth, A994-100 ML) and 25 µL of phosphate buffer was analyzed alongside each sample.
The pKa values were determined using the automated UV-metric pKa protocol within the Sirius T3 Control software (version 2.0.0.0.). Each sample was subjected to three consecutive […]
from 2 to 12 by stepwise addition of 0.5 M HCl or 0.5 M potassium hydroxide while recording […]
UV absorbance. […]
To ensure reproducibility, measurements were conducted on at least two

[1] = test system: ERα-UAS-bla GripTite cells; details: TKcytotoxicity-Ratio
Description: as §1, with “S2.4). […]” for “S2.4).”
The TK-Ratio method was used to evaluate the impact of abiotic CYP oxidation on the potency of tested compounds. […]
For experiments with the preceding aCYP activation, ERα cell viability was additionally calculated from the readout of the ToxBLAzer reagent. The ToxBLAzer assay was conducted following the manufacturer's instructions (Thermo Fisher, Waltham, MA, U.S.).13 Fluorescence intensity was recorded at the start of the assay ( Fwavelength(0h)) and after a 2-hour incubation at […]
eq. S11 for normalization.
Cell viability = F665nm(2h, sample)-F665nm(0h, average cell-free) (S11) F665nm(2h, average unexposed)-F665nm(0h, average cell-free) […]
the specific endpoint to avoid artifacts from cytotoxicity burst. 15
S2.5: Concentration-response curves (CRCs)
To avoid bias from cytotoxicity burst at higher concentrations, all concentrations exceeding the IC10 for cytotoxicity were excluded in the CRC modeling of effects but otherwise cytotoxicity and effects were fitted with the same model equations (response stands for cytotoxicity or effect). For ERα, AhR, ARE and PPARγ preferably a linear model was fitted to the linear portion of CRC up to maximum 30% effect (eq. S12),16 but in some cases it was necessary to choose a sigmoidal log-concentration-response model, specifically a log-logistic model (eq. S13), to derive effect concentrations and cytotoxicity. […]
This was done using the
AutomatedBioassayScreening19 published by Braun et al.,20 which also included an algorithm to choose the best model between eq. S12 and eq. S13.
Response (%) = slope × C (S12) […]
logEC =logEC − 1 ∙log (max−min − 100%) (S14)

[2] = read-out: EC10, linear transformed
[3] = second pKa column, experimental, this study
[4] = phosphate buffer with […] KCl, Sirius T3 titrator, experimental, this study

Row | SMILES | EC10 (SH-SY5Y cells; read-out: EC10, NOI) [M] | EC10 (SH-SY5Y cells; read-out: EC10, NOI (M)) [M] | EC10 (SH-SY5Y cells; read-out: EC10, linear) [M] | EC10 (SH-SY5Y cells; [2]) [M] | EC10 (SH-SY5Y cells; read-out: logEC10) [M] | pKa (Acid) (physchem) | Double negative form (pH = 7.40) (physchem) [%] | Negative form (pH = 7.40) (physchem) [%] | Neutral form (pH = 7.40) (physchem) [%] | pKa (physchem) | TKcytotoxicity ([1]; Table S11) | αneutral % (fraction of neutral species) (physchem) [%] | TKcytotoxicity ([1]; Table S10) | EC10, linear (SH-SY5Y cells) | logEC10 (SH-SY5Y cells) | further results
1 | CC(c1ccccc1)(c1ccc(O)cc1)c1ccc(O)cc1 [BPAP, 4,4'-(1-Phenylethylidene)bisphenol] | 5.12e-05 | 5.12e-05 | 4.83e-05 | 5.09e-05 | 5.13e-05 | 9.99 | 0.00503 | 2 | 98 | 9.1 | 0.76 |  |  |  |  | 
2 | CCC(C)(c1ccc(O)cc1)c1ccc(O)cc1 [BPB, 4,4'-(Butane-2,2-diyl)diphenol] | 2.8e-05 | 2.8e-05 | 4.03e-05 | 3.89e-05 | 2.82e-05 | 10.33 | 0.000865 | 0.736 | 99 | 9.53 |  | 99 | 0.24 |  |  | Specificity ratio (SRbaseline) SRNOI (SH-SY5Y cells): 0.59; Specificity ratio (SRcytotoxicity) SRNOI (SH-SY5Y cells; against experimental cytotoxicity): 5.98; Relative effect potency REPNOI (SH-SY5Y cells): 1.81
3 | CC(c1ccc(O)cc1)c1ccc(O)cc1 [BPE, 4,4′-Ethylidenbisphenol] | 0.000114 | 0.000114 | 0.000136 | 0.000235 | 0.000115 | 9.99 | 0.00576 | 2.24 | 98 | 9.04 |  | 98 | 0.63 |  |  | 
4 | Oc1ccc(Cc2ccc(O)cc2)cc1 [BPF, Bis(4-hydroxyphenyl)methane] |  |  |  | 0.000697 |  | 10.27 | 0.000993 | 0.736 | 99 | 9.53 | 0.44 | 99 | 0.75 | no effect | no effect | 
5 | CC(C)c1cc(C(C)(C)c2ccc(O)c(C(C)C)c2)ccc1O [BPG, 2,2-Bis(4-hydroxy-3-isopropylphenyl)propane] |  |  |  | 2.67e-05 |  |  | 4.07e-6 | 0.0363 | 100 |  | 0.67 | 100 | 0.62 | no effect | no effect | pKa (physchem; [3]): 11.3; pKa (physchem; experimental, this study): 10.8
6 | CC(C)(c1ccc(O)c(-c2ccccc2)c1)c1ccc(O)c(-c2ccccc2)c1 [BPPH, 2,2-Bis(2-hydroxy-5-biphenylyl)propane] |  |  | 9.84e-06 | 2.12e-05 |  |  | 0.000533 | 0.825 | 99 |  |  | 99 | 0.11 |  | no effect | pKa (physchem; [3]): 10.6; pKa (physchem; experimental, this study): 9.48
7 | O=S(=O)(c1ccc(O)cc1)c1ccc(OCc2ccccc2)cc1 [BPS-MPE, 4-[4-(benzyloxy)benzenesulfonyl]phenol] | 0.000247 | 0.000247 | 0.000638 | 0.000247 | 0.000245 |  |  | 32 | 68 |  |  | 68 | 0.45 |  |  | Specificity ratio (SRbaseline) SRNOI (SH-SY5Y cells): 0.11; Relative effect potency REPNOI (SH-SY5Y cells): 0.21; pKa (physchem; [4]): 7.73
8 | Oc1ccc(Sc2ccc(O)cc2)cc1 [BPT, 4,4'-Thiodiphenol] |  |  |  |  |  |  | 0.0324 | 4.47 | 96 |  | 1.00 | 96 | 1.35 | no effect | no effect | pKa (physchem; phosphate buffer with […] KCl, Sirius T3 titrator, second pKa column, experimental, this study): 9.54; pKa (physchem; [4]): 8.73
